{"source": "paper PMC2904477", "about": "(Biochemistry, 2010)", "key": {"[1]": {"biological_target": "T1, K402Q/R405Q/R409Q CB1 receptor (Homo sapiens, UniProt P21554, K402Q/R405Q/R409Q)", "T1 sequence (P21554 whole entry K402Q/R405Q/R409Q)": "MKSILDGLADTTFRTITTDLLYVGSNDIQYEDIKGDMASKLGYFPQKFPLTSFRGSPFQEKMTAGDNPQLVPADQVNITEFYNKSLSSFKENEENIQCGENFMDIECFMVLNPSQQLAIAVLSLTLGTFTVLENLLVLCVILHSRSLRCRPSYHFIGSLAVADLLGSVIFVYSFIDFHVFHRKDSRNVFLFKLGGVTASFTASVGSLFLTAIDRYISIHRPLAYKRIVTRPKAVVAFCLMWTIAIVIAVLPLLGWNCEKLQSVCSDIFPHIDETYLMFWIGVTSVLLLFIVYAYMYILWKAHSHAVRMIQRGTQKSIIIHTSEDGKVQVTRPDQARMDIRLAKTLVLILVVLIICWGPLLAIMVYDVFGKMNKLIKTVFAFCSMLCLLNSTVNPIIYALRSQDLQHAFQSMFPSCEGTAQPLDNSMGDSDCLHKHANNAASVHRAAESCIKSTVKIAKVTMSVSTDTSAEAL", "details": "[3H]CP55940 saturation binding, mean ± SEM"}, "[2]": {"biological_target": "F412A CB1 receptor (Homo sapiens, UniProt P21554, F412A)", "sequence (P21554 whole entry F412A)": "as the sequence (P21554 whole entry K402Q/R405Q/R409Q) above, with Q402K, Q405R, Q409R, F412A counted along it", "details": "[3H]CP55940 saturation binding"}, "[3]": {"biological_target": "L404F/F412L CB1 receptor (Homo sapiens, UniProt P21554, F412L/L404F)", "sequence (P21554 whole entry L404F/F412L)": "as the sequence (P21554 whole entry K402Q/R405Q/R409Q) above, with Q402K, L404F, Q405R, Q409R, F412L counted along it", "details": "[3H]CP55940 saturation binding"}, "[4]": {"biological_target": "F408A CB1 receptor (Homo sapiens, UniProt P21554, F408A)", "sequence (P21554 whole entry F408A)": "as the sequence (P21554 whole entry K402Q/R405Q/R409Q) above, with Q402K, Q405R, F408A, Q409R counted along it", "details": "[3H]CP55940 saturation binding"}, "[5]": {"biological_target": "L404F/F408L CB1 receptor (Homo sapiens, UniProt P21554, F408L/L404F)", "sequence (P21554 whole entry L404F/F408L)": "as the sequence (P21554 whole entry K402Q/R405Q/R409Q) above, with Q402K, L404F, Q405R, F408L, Q409R counted along it", "details": "[3H]CP55940 saturation binding"}, "[6]": {"biological_target": "T2, L404A/F408A/F412A CB1 receptor (Homo sapiens, UniProt P21554, F408A/F412A/L404A)", "T2 sequence (P21554 whole entry L404A/F408A/F412A)": "as the sequence (P21554 whole entry K402Q/R405Q/R409Q) above, with Q402K, L404A, Q405R, F408A, Q409R, F412A counted along it", "details": "CP55940 dose-response, mean ± SEM"}, "[7]": {"biological_target": "T2, L404A/F408A/F412A CB1 receptor", "details": "[3H]CP55940 saturation binding, mean ± SEM"}, "[8]": {"biological_target": "T1, K402Q/R405Q/R409Q CB1 receptor", "details": "CP55940 dose-response, mean ± SEM"}, "[9]": {"biological_target": "T3, wild-type CB1 receptor (Homo sapiens, UniProt P21554)", "T3 sequence (P21554 whole entry)": "as the sequence (P21554 whole entry K402Q/R405Q/R409Q) above, with Q402K, Q405R, Q409R counted along it", "details": "[3H]CP55940 saturation binding, mean ± SEM"}, "[10]": {"biological_target": "L404A CB1 receptor (Homo sapiens, UniProt P21554, L404A)", "sequence (P21554 whole entry L404A)": "as the sequence (P21554 whole entry K402Q/R405Q/R409Q) above, with Q402K, L404A, Q405R, Q409R counted along it", "details": "[3H]CP55940 saturation binding"}, "[11]": {"biological_target": "T3, wild-type CB1 receptor", "details": "CP55940 dose-response; wild-type receptor (reference)"}}, "data": [{"compound": "CCCCCCC(C)(C)c1ccc([C@@H]2C[C@H](O)CC[C@H]2CCCO)c(O)c1", "note": "[CP55940, (1R,3R,4R)-3-[2-hydroxy-4-(1,1-dimethylheptyl)phenyl]-4-(3-hydroxypropyl)cyclohexan-1-ol]", "values": [{"measurement": "Bmax", "setting": "[1]", "result": "3118 ± 142", "unit": "fmol/mg"}, {"measurement": "Bmax", "setting": "[2]", "result": "4062 ± 80", "unit": "fmol/mg"}, {"measurement": "Bmax", "setting": "[3]", "result": "4531 ± 177", "unit": "fmol/mg"}, {"measurement": "Bmax", "setting": "[4]", "result": "4133 ± 105", "unit": "fmol/mg"}, {"measurement": "Bmax", "setting": "[5]", "result": "4523 ± 239", "unit": "fmol/mg"}, {"measurement": "GTPγS Emax", "setting": "[6]", "result": "14.4 ± 1.9", "unit": "% WT"}, {"measurement": "Bmax", "setting": "[7]", "result": "867 ± 80", "unit": "fmol/mg"}, {"measurement": "GTPγS Emax", "setting": "[8]", "result": "80.6 ± 2.0", "unit": "% WT"}, {"measurement": "Bmax", "setting": "[9]", "result": "3499 ± 129", "unit": "fmol/mg"}, {"measurement": "Bmax", "setting": "[10]", "result": "3158 ± 135", "unit": "fmol/mg"}, {"measurement": "GTPγS Emax", "setting": "[11]", "result": 100.0, "unit": "% WT"}]}]}
